Assay results reported in patent US9040579B2, “Combination therapy using coenzyme Q10 and a caffeic acid-derived ester” (priority 2010, dated 2015).

Test system: Mice that over-expressed human Cu,Zn superoxide dismutase-1 mutant G93A
Experiment: Survival of ALS model mice treated by oral gavage
Format: in vivo
Details: G93A SOD1 mice; single-agent control treatment; untreated mice 125 days
Method: Compound 1 was dissolved in a PEG solvent (30% PEG 400, 5% EtOH, 5% DMSO, 1 mg/ml). The solution was mixed with Coenzyme Q10 in liposome (5 mg/ml, NuNaturals).
Mice that over-expressed human Cu,Zn superoxide dismutase-1 mutant G93A to develop a delayed and progressive motor neuron disease similar to human amyotrophic lateral sclerosis (ALS) were used in this assay.
The mixture of Compound 1 and Coenzyme Q10 were administered by gavage (oral) once a day (final dosage: 10 mg/kg of Compound 1 and 50 mg/kg of Coenzyme Q10) to 5 mice. The average survival time for the mice was 156 days.
As control, mice were subject to Compound 1 treatment, Coenzyme Q10 treatment, or no Compound 1 or Coenzyme Q10 treatment. The average survival time was 138 days for Compound 1-treated mice, 129 days for Coenzyme Q10 treatment mice, and 125 days for no Compound 1 or Coenzyme Q10-treated mice.

Row | Compound | average survival time [days]
1 | O=C(/C=C/c1ccc(O)c(O)c1)OCCc1ccccc1 [Compound 1, caffeic acid phenethyl ester] | 138
2 | COC1=C(OC)C(=O)C(C/C=C(\C)CC/C=C(\C)CC/C=C(\C)CC/C=C(\C)CC/C=C(\C)CC/C=C(\C)CC/C=C(\C)CC/C=C(\C)CC/C=C(\C)CCC=C(C)C)=C(C)C1=O [Coenzyme Q10] | 129
